In test [1] the test system is ABUTH. Put plainly: Pre-emergence action against ABUTH. Format: in vivo, Abutilon theophrasti. The note with it: Abutilon theophrasti, 504 h; pre-emergence, dosage 320 g/ha, scored visually after 3 weeks vs untreated controls; read-out: Pre-emergence action against ABUTH (herbicidal activity). The procedure, abridged: (§1)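 Seeds sown in sandy loam in wood-fiber pots and covered with soil. Greenhouse growth; visual damage scored after 3 weeks versus untreated controls (100% = dead, 0% = like control).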

A further test deals with POLCO. Description: Post-emergence action against POLCO. It counts as in vivo, Polygonum convolvulus. The conditions noted are these: Fallopia convolvulus, 504 h; post-emergence, dosage 80 g/ha. The procedure, abridged:
(§2)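 Weeds grown in sandy loam in greenhouse, treated at one-leaf stage (2–3 weeks after sowing) with WP or EC formulations sprayed as aqueous suspension/emulsion at 600 to […] water with 0.2% wetting agent. Visual rating after about 3 weeks versus untreated controls, as % herbicidal action (100% = plants dead, 0% = like control).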

Test [2] has as its system VIOTR. Description: Pre-emergence action against VIOTR. Format: in vivo, Viola tricolor. The note with it: Viola tricolor, 504 h; Dosage 320 g/ha, pre-emergence. The procedure, abridged: as §1
The subject of test [3] is ABUTH. Description: Post-emergence action against ABUTH. Format: in vivo, Abutilon theophrasti. The note with it: Abutilon theophrasti, 504 h; post-emergence, dosage 80 g/ha, visual assessment about 3 weeks after treatment vs untreated controls; read-out: Post-emergence action against ABUTH (herbicidal action in percent). The procedure, abridged:
as §2

Test [4] relates to AVEFA. Put plainly: Pre-emergence action against AVEFA. It counts as in vivo, Avena fatua. The note with it: Avena fatua, 504 h, dosage 320 g/ha, scored visually after 3 weeks vs untreated controls, read-out: Pre-emergence action against AVEFA (herbicidal activity). The essentials: as §1
The test system of another test is ECHCG. Description: Pre-emergence action against ECHCG. The note with it: Echinochloa crus-galli, 504 h; pre-emergence, dosage 320 g/ha, scored visually after 3 weeks vs untreated controls; read-out: Pre-emergence action against ECHCG (herbicidal activity). It counts as in vivo, Echinochloa crus-galli. The procedure, abridged: as §1
Test [5] concerns MATIN. Put plainly: Pre-emergence action against MATIN. Format: in vivo, Matricaria inodora. The conditions noted are these: Tripleurospermum inodorum, 504 h; Dosage 320 g/ha, pre-emergence. The procedure, abridged: as §1
Test [6] deals with PHBPU. Put plainly: Post-emergence action against PHBPU. The conditions noted are these: Ipomoea purpurea, 504 h; post-emergence, dosage 80 g/ha. Format: in vivo, Pharbitis purpurea. The procedure, abridged:
as §2

A further test has as its system AMARE. Description: Pre-emergence action against AMARE. Format: in vivo, Amaranthus retroflexus. The note with it: Amaranthus retroflexus, 504 h; pre-emergence, dosage 320 g/ha, scored visually after 3 weeks vs untreated controls; read-out: Pre-emergence action against AMARE (herbicidal activity). The essentials:
as §1

The subject of test [7] is STEME. Description: Pre-emergence action against STEME. Format: in vivo, Stellaria media. The conditions noted are these: Stellaria media, 504 h; Dosage 320 g/ha, pre-emergence. The essentials: as §1
The subject of test [8] is MATIN. Description: Post-emergence action against MATIN. Format: in vivo, Matricaria inodora. The note with it: Tripleurospermum inodorum, 504 h; post-emergence, dosage 80 g/ha, visual assessment about 3 weeks after treatment vs untreated controls; read-out: Post-emergence action against MATIN (herbicidal action in percent). The procedure, abridged: as §2
Test [9] deals with AVEFA. Put plainly: Post-emergence action against AVEFA. It counts as in vivo, Avena fatua. The conditions noted are these: Avena fatua, 504 h; post-emergence, dosage 80 g/ha, visual assessment about 3 weeks after treatment vs untreated controls; read-out: Post-emergence action against AVEFA (herbicidal action in percent). The procedure, abridged:
as §2

The test system of test [10] is VERPE. Description: Pre-emergence action against VERPE. The conditions noted are these: Veronica persica, 504 h; Dosage 320 g/ha, pre-emergence. Format: in vivo, Veronica persica. The procedure, abridged: as §1
Another test concerns ALOMY. Put plainly: Post-emergence action against ALOMY. It counts as in vivo, Alopecurus myosuroides. The note with it: Alopecurus myosuroides, 504 h; Dosage 80 g/ha, post-emergence. The essentials:
as §2

For test [11], the system named is VERPE. Put plainly: Post-emergence action against VERPE. It counts as in vivo, Veronica persica. The note with it: Veronica persica, 504 h, dosage 80 g/ha. The procedure, abridged: as §2
The test system of test [12] is PHBPU. Description: Pre-emergence action against PHBPU. Format: in vivo, Pharbitis purpurea. The note with it: Ipomoea purpurea, 504 h; Dosage 320 g/ha, pre-emergence. The essentials: as §1
Test [13] deals with VIOTR. Description: Post-emergence action against VIOTR. Format: in vivo, Viola tricolor. The conditions noted are these: Viola tricolor, 504 h; post-emergence, dosage 80 g/ha. The essentials: as §2
For test [14], the system named is STEME. Put plainly: Post-emergence action against STEME. Format: in vivo, Stellaria media. The conditions noted are these: Stellaria media, 504 h; post-emergence, dosage 80 g/ha. The essentials: as §2
The test system of a further test is SETVI. Description: Post-emergence action against SETVI. Format: in vivo, Setaria viridis. The conditions noted are these: Setaria viridis, 504 h; post-emergence, dosage 80 g/ha, visual assessment about 3 weeks after treatment vs untreated controls; read-out: Post-emergence action against SETVI (herbicidal action in percent). The procedure, abridged: as §2
The subject of the next test is CYPES. Description: Post-emergence action against CYPES. Format: in vivo, Cyperus esculentus. The conditions noted are these: Cyperus esculentus, 504 h; post-emergence, dosage 80 g/ha, visual assessment about 3 weeks after treatment vs untreated controls; read-out: Post-emergence action against CYPES (herbicidal action in percent). The essentials:
as §2

SMILES strings stand for the structures.

With `CCCC(=O)c1c(C(F)(F)F)ccc(C(=O)Nc2nnnn2C)c1C` [1-16], the pest or weed control at 320 g/ha in the test on ABUTH [1] is 100%; in the test on VIOTR [2] it was 100%; in the test on AVEFA [4], 90%; with ECHCG, 100%; in the test with MATIN [5], 100%; in the test on AMARE it was 100%. Moreover, the pest or weed control at 320 g/ha in the test on STEME [7] stood at 100%; in the test with VERPE [10] it was 100%; with PHBPU [12], 90%. The pest or weed control at 80 g/ha in the test on POLCO stood at 100%; in the test with ABUTH [3], 100%; with PHBPU [6], 100%; with MATIN [8], 100%; in the test with AVEFA [9], 90%; with ALOMY, 90%. Also, the pest or weed control at 80 g/ha in the test on VERPE [11] turned out to be 90%; with VIOTR [13], 100%; in the test on STEME [14], 100%; in the test on SETVI, 90%.

Regarding `COc1c(C(=O)Nc2nnnn2C)ccc(C(F)(F)F)c1C(=O)C1CC1` [1-50], the pest or weed control at 320 g/ha in the test on ABUTH [1], in the test with VIOTR [2], with AVEFA [4], with ECHCG, with MATIN [5] and in the test on AMARE was 100% throughout. Moreover, the pest or weed control at 320 g/ha in the test on STEME [7], in the test on VERPE [10] and in the test on PHBPU [12] was 100% each time. Also, the pest or weed control at 80 g/ha in the test on POLCO turned out to be 100%; with ABUTH [3], 100%; in the test on PHBPU [6] it was 100%; in the test with MATIN [8], 100%; with AVEFA [9], 100%; in the test on ALOMY, 80%. Further, the pest or weed control at 80 g/ha in the test on VERPE [11] amounted to 100%; with CYPES it was 80%; with VIOTR [13], 100%; in the test on STEME [14] it was 100%; in the test with SETVI it was 100%.

With `CSc1c(C(=O)Nc2nnnn2C)ccc(C(F)(F)F)c1C(=O)C1CC1` [1-60], the pest or weed control at 320 g/ha in the test on ABUTH [1], in the test on VIOTR [2], with AVEFA [4], in the test on ECHCG, in the test on MATIN [5] and in the test on AMARE was 100% throughout. Besides, the pest or weed control at 320 g/ha in the test with STEME [7], in the test on VERPE [10] and with PHBPU [12] was 100% in each case. Moreover, the pest or weed control at 80 g/ha in the test on POLCO amounted to 100%; with ABUTH [3], 90%; with PHBPU [6] it was 90%; in the test with MATIN [8], 100%; in the test with AVEFA [9] it was 100%; in the test with ALOMY, 100%. The pest or weed control at 80 g/ha in the test on VERPE [11] stood at 100%; with CYPES it was 90%; with VIOTR [13] it was 90%; in the test with STEME [14], 100%; in the test with SETVI, 100%.

As to `CCC(=O)c1c(C(F)F)ccc(C(=O)Nc2nnnn2C)c1Cl` [1-165], the pest or weed control at 320 g/ha in the test with ABUTH [1], in the test with VIOTR [2], in the test on AVEFA [4], in the test on ECHCG, in the test on MATIN [5] and in the test with AMARE was 100% each time. The pest or weed control at 320 g/ha with STEME [7], in the test with VERPE [10] and with PHBPU [12] was 100% in each case. The pest or weed control at 80 g/ha with POLCO came to 100%; in the test on ABUTH [3] it was 90%; with PHBPU [6], 90%; in the test on MATIN [8] it was 90%; in the test with AVEFA [9] it was 90%; in the test on ALOMY, 90%. Moreover, the pest or weed control at 80 g/ha with VERPE [11] came to 90%; with VIOTR [13], 90%; with STEME [14], 100%; in the test on SETVI, 100%.

With `CC(=O)c1c(I)ccc(C(=O)Nc2nnnn2C)c1Cl` [1-192], the pest or weed control at 320 g/ha in the test with ABUTH [1], in the test with VIOTR [2], in the test on AVEFA [4], with ECHCG, with MATIN [5] and with AMARE was 100% each time. The pest or weed control at 320 g/ha in the test on STEME [7] and in the test with PHBPU [12] was 100% throughout. For the same compound, the pest or weed control at 80 g/ha in the test with POLCO is 100%; with ABUTH [3], 100%; with PHBPU [6], 80%; with MATIN [8], 100%; with AVEFA [9] it was 80%; in the test on ALOMY, 80%. The values for the pest or weed control at 80 g/ha in the test on CYPES, in the test on VIOTR [13] and with SETVI were 80%, 100% and 100%, respectively.

For the compound `Cn1nnnc1NC(=O)c1ccc(C(F)(F)F)c(C(=O)C2CC2)c1C1CC1` [1-233], the pest or weed control at 320 g/ha in the test on ABUTH [1], with VIOTR [2], in the test with AVEFA [4], in the test on ECHCG, in the test on MATIN [5] and with AMARE was 100% each time. In addition, the pest or weed control at 320 g/ha with STEME [7], in the test with VERPE [10] and in the test on PHBPU [12] was 100% in each case. The pest or weed control at 80 g/ha in the test with POLCO was found to be 90%; in the test on ABUTH [3], 100%; in the test on PHBPU [6], 100%; with MATIN [8], 90%; in the test on AVEFA [9], 90%; with ALOMY, 90%. Further, the pest or weed control at 80 g/ha amounted to 100% in the test with VERPE [11], 90% with VIOTR [13], 90% in the test with STEME [14] and 90% in the test on SETVI.

Values taken from US11051515B2, “3-acyl-benzamides and their use as herbicides” (Bayer Aktiengesellschaft, priority 2017, dated 2021).
